Each molecule was assayed against PD-1/PD-L1 (Homo sapiens (Human), UniProt Q9NZQ7) (assay: PD-1/PD-L1 Binding Assay (Alphascreen)). Conditions: numeric values.
PD-1/PD-L1, sequence (Q9NZQ7 19-238): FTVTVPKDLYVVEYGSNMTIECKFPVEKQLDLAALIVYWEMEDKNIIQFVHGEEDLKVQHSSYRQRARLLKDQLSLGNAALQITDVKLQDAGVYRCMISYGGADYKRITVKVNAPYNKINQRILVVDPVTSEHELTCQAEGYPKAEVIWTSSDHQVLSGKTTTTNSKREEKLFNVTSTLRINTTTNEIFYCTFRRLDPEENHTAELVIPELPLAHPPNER
How it was run: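 PD-1/PD-L1 binding detected by anti-6×His acceptor and streptavidin donor beads after 120 min in the dark at 25 °C. Beforehand, the two proteins were incubated 15 min at 25 °C with inhibitor at 0.015–300 nM (1% DMSO). IC50 comes from a log concentration–response curve.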
`Cc1c(-c2nc3cc(CN4CC[C@@H]4CO)c(OC(F)F)cc3o2)cccc1-c1cccc(-c2nc3cc(CN4CCC[C@H]4C(=O)O)c(OC(F)F)cc3o2)c1C` [Example 35, ((6-(difluoromethoxy)-2-(3′-(6-(difluoromethoxy)-5-(((R)-2-(hydroxymethyl)azetidin-1-yl)methyl)benzo[d]oxazol-2-yl)-2,2′-dimethyl-[1,1′-biphenyl]-3-yl)benzo[d]oxazol-5-yl)methyl)-L-proline] gave an IC50 of 0.91 nM. With `Cc1c(-c2nc3cc(CN4CCC[C@@H]4C(=O)O)c(OC(F)F)cc3o2)cccc1-c1cccc(-c2nc3cc(CN4CC[C@@H](C)C4)cc(C#N)c3o2)c1C` [Example 132, ((2-(3′-(7-cyano-5-(((R)-3-methylpyrrolidin-1-yl)methyl)benzo[d]oxazol-2-yl)-2,2′-dimethyl-[1,1′-biphenyl]-3-yl)-6-(difluoromethoxy)benzo[d]oxazol-5-yl)methyl)-D-proline] the IC50 was 2 nM. In the case of `Cc1c(-c2nc3cc(CN[C@@H]4CCC[C@@H]4O)c(OC(F)F)cc3o2)cccc1-c1cccc(-c2nc3cc(CN4CCC[C@H]4C(=O)O)c(OC(F)F)cc3o2)c1C` [Example 25, ((6-(difluoromethoxy)-2-(3′-(6-(difluoromethoxy)-5-((((1R,2S)-2-hydroxycyclopentyl)amino)methyl)benzo[d]oxazol-2-yl)-2,2′-dimethyl-[1,1′-biphenyl]-3-yl)benzo[d]oxazol-5-yl)methyl)-L-proline], the IC50 is reported as 0.3 nM. `Cc1c(-c2nc3cc(CN4CCC(C)(CO)C4)c(OC(F)F)cc3o2)cccc1-c1cccc(-c2nc3cc(CN4CCC[C@H]4C(=O)O)c(OC(F)F)cc3o2)c1C` (stereo partly drawn) [Example 77, ((6-(difluoromethoxy)-2-(3′-(6-(difluoromethoxy)-5-((3-(hydroxymethyl)-3-methylpyrrolidin-1-yl)methyl)benzo[d]oxazol-2-yl)-2,2′-dimethyl-[1,1′-biphenyl]-3-yl)benzo[d]oxazol-5-yl)methyl)-L-proline] was tested, and the IC50 was 1.2 nM. With `Cc1c(-c2nc3cc(CNC[C@@H]4CCC(=O)N4)c(OC(F)F)cc3o2)cccc1-c1cccc(-c2nc3cc(CN4CCC[C@H]4C(=O)O)c(OC(F)F)cc3o2)c1C` [Example 19, ((6-(difluoromethoxy)-2-(3′-(6-(difluoromethoxy)-5-(((((S)-5-oxopyrrolidin-2-yl)methyl)amino)methyl)benzo[d]oxazol-2-yl)-2,2′-dimethyl-[1,1′-biphenyl]-3-yl)benzo[d]oxazol-5-yl)methyl)-L-proline] the IC50 was 1.3 nM. Work on `COC(=O)N[C@H](C(=O)N[C@H]1CCN(Cc2ccc(-c3cccc(-c4cccc(-c5nc6cc(CN7CCC[C@H]7C(=O)O)c(OC(F)F)cc6o5)c4C)c3C)cc2)C1)C(C)C` [Example 257, ((6-(difluoromethoxy)-2-(4″-(((S)-3-((S)-2-((methoxycarbonyl)amino)-3-methylbutanamido)pyrrolidin-1-yl)methyl)-2,2′-dimethyl-[1,1′:3′,1″-terphenyl]-3-yl)benzo[d]oxazol-5-yl)methyl)-L-proline] yielded an IC50 of 4.4 nM. `Cc1c(-c2nc3c(o2)CCN(CCO)C3)cccc1-c1cccc(-c2nc3cc(CN4CCC[C@H]4C(=O)O)c(OC(F)F)cc3o2)c1C` [Example 206, ((6-(difluoromethoxy)-2-(3′-(5-(2-hydroxyethyl)-4,5,6,7-tetrahydrooxazolo[4,5-c]pyridin-2-yl)-2,2′-dimethyl-[1,1′-biphenyl]-3-yl)benzo[d]oxazol-5-yl)methyl)-L-proline] showed an IC50 of 1.4 nM.

Same assay, conditions: range symbols
Molecule `Cc1c(-c2ccc(CN3CC[C@H](CO)C3)c(C#N)c2)cccc1-c1cccc(-c2nc3cc(CN4CCC[C@H]4C(=O)O)c(OC(F)F)cc3o2)c1C` [Example 240, ((2-(3″-cyano-4″-(((S)-3-(hydroxymethyl)pyrrolidin-1-yl)methyl)-2,2′-dimethyl-[l,1′:3′,1″-terphenyl]-3-yl)-6-(difluoromethoxy)benzo[d]oxazol-5-yl)methyl)-L-proline] has an IC50 of 5 to 50 nM. `Cc1c(-c2nc3cc(CN4CCC45CCC5)ccc3o2)cccc1-c1cccc(-c2nc3cc(CN4CCC[C@H]4C(=O)O)c(OC(F)F)cc3o2)c1C` [Example 107, ((2-(3′-(5-((1-azaspiro[3.3]heptan-1-yl)methyl)benzo[d]oxazol-2-yl)-2,2′-dimethyl-[1,1′-biphenyl]-3-yl)-6-(difluoromethoxy)benzo[d]oxazol-5-yl)methyl)-L-proline] gave an IC50 of 0.1 to 5 nM. With `Cc1c(-c2nc3cc(CN4CCC[C@H]4C(=O)O)c(OC(F)F)cc3o2)cccc1-c1cccc(-c2nc3cc(CNCC(C)(C)O)cc(C#N)c3o2)c1C` [Example 138, ((2-(3′-(7-cyano-5-(((2-hydroxy-2-methylpropyl)amino)methyl)benzo[d]oxazol-2-yl)-2,2′-dimethyl-[1,1′-biphenyl]-3-yl)-6-(difluoromethoxy)benzo[d]oxazol-5-yl)methyl)-L-proline] the IC50 was 0.1 to 5 nM. `Cc1c(-c2nc3cc(CN4CCC[C@H]4C(=O)O)c(OC(F)F)cc3o2)cccc1-c1cccc(-c2ccc(CN3CCCC3)cc2F)c1Cl` [Example 222, ((2-(2′-chloro-2″-fluoro-2-methyl-4″- (pyrrolidin-1-ylmethyl)-[1,1′:3′,1″-terphenyl]-3-yl)-6-(difluoromethoxy)benzo[d]oxazol-5-yl)methyl)proline] was tested, and the IC50 was 0.1 to 5 nM. In the case of `Cc1c(-c2nc3cc(CN4CCC[C@H]4C(=O)O)c(OC(F)F)cc3o2)cccc1-c1cccc(-c2nc3cc(CN4CCC5(C4)CC5(F)F)cc(C#N)c3o2)c1C` (stereo partly drawn) [Example 153, ((2-(3′-(7-cyano-5-((1,1-difluoro-5-azaspiro[2.4]heptan-5-yl)methyl)benzo [d]oxazol-2-yl)-2,2′-dimethyl-[1,1′-biphenyl]-3-yl)-6-(difluoromethoxy)benzo[d]oxazol-5-yl)methyl)-L-proline], the IC50 is reported as 0.1 to 5 nM. In the case of `CCN(CCO)Cc1cc(C#N)c2oc(-c3cccc(-c4cccc(-c5nc6cc(CN7CCC[C@H]7C(=O)O)c(OC(F)F)cc6o5)c4C)c3C)nc2c1` [Example 141, ((2-(3′-(7-cyano-5-((ethyl(2-hydroxyethyl)amino)methyl)benzo[d]oxazol-2-yl)-2,2′-dimethyl-[1,1′-biphenyl]-3-yl)-6-(difluoromethoxy)benzo[d]oxazol-5-yl)methyl)-L-proline], the IC50 is reported as 0.1 to 5 nM. `Cc1c(-c2nc3cc(CN4CCC[C@@H]4C(=O)O)c(OC(F)F)cc3o2)cccc1-c1cccc(-c2nc3ccc(CN4CC(C)(C)C4)cc3o2)c1Cl` [Example 111, ((2-(2′-chloro-3′-(6-((3,3-dimethylazetidin-1-yl)methyl)benzo[d]oxazol-2-yl)-2-methyl-[1,1′-biphenyl]-3-yl)-6-(difluoromethoxy)benzo[d]oxazol-5-yl)methyl)-D-proline] gave an IC50 of 0.1 to 5 nM. In the case of `Cc1c(-c2cnc(CN3CCCC3)cn2)cccc1-c1cccc(-c2nc3cc(CN4CCC[C@H]4C(=O)O)c(OC(F)F)cc3o2)c1C` [Example 284, ((6-(difluoromethoxy)-2-(2,2′-dimethyl-3′-(5-(pyrrolidin-1-ylmethyl)pyrazin-2-yl)-[1,1′-biphenyl]-3-yl)benzo[d]oxazol-5-yl)methyl)-L-proline], the IC50 is reported as 5 to 50 nM. In the case of `Cc1c(-c2nc3cc(CN4CC5CCCC5C4)c(OC(F)F)cc3o2)cccc1-c1cccc(-c2nc3cc(CN4CCC[C@H]4C(=O)O)c(OC(F)F)cc3o2)c1C` (stereo partly drawn) [Example 49, ((6-(difluoromethoxy)-2-(3′-(6-(difluoromethoxy)-5-((hexahydrocyclopenta [c]pyrrol-2(1H)-yl)methyl)benzo[d]oxazol-2-yl)-2,2′-dimethyl-[1,1′-biphenyl]-3-yl)benzo[d]oxazol-5-yl)methyl)-L-proline], the IC50 is reported as 0.1 to 5 nM. For `CC(=O)NCCNCc1cc(Cl)c(OCc2cccc(-c3cccc(-c4nc5cc(CN6CCC[C@H]6C(=O)O)c(OC(F)F)cc5o4)c3C)c2C)cc1OCc1cccc(C#N)c1` [Example 210], the IC50 was 0.1 to 5 nM. `Cc1c(-c2nc3cc(CN4CCC[C@@H]4C(=O)O)c(OC(F)F)cc3o2)cccc1-c1cccc(-c2nc3cc(CN4CC(C)(C)C4)cc(C#N)c3o2)c1C` [Example 140, ((2-(3′-(7-cyano-5-((3,3-dimethylazetidin-1-yl)methyl)benzo[d]oxazol-2-yl)-2,2′-dimethyl-[1,1′-biphenyl]-3-yl)-6-(difluoromethoxy)benzo[d]oxazol-5-yl)methyl)-D-proline] was tested, and the IC50 was 0.1 to 5 nM. Molecule `Cc1c(-c2nc3cc(CN4CC5(CCNCC5)C4)c(OC(F)F)cc3o2)cccc1-c1cccc(-c2nc3cc(CN4CCC[C@H]4C(=O)O)c(OC(F)F)cc3o2)c1C` [Example 51, ((2-(3′-(5-((2,7-diazaspiro[3.5]nonan-2-yl)methyl)-6-(difluoromethoxy)benzo[d]oxazol-2-yl)-2,2′-dimethyl-[1,1′-biphenyl]-3-yl)-6-(difluoromethoxy)benzo[d]oxazol-5-yl)methyl)-L-proline] has an IC50 of 0.1 to 5 nM. `Cc1c(-c2ccc([C@H](N)C(=O)O)cc2)cccc1-c1cccc(-c2nc3cc(CN4CCC[C@H]4C(=O)O)c(OC(F)F)cc3o2)c1C` [Example 256, ((2-(4″-((S)-amino(carboxy)methyl)-2,2′-dimethyl-[1,1′:3′,1″-terphenyl]-3-yl)-6-(difluoromethoxy)benzo[d]oxazol-5-yl)methyl)-L-proline] gave an IC50 of over 50 nM. `Cc1c(-c2nc3cc(CN4CCC[C@H]4C(=O)O)c(OC(F)F)cc3o2)cccc1-c1cccc(-c2nc3cc(CN4CC(C)C(N(C)C)C4)cc(C#N)c3o2)c1C` (stereo partly drawn) [Example 158, ((2-(3′-(7-cyano-5-((3-(dimethylamino)-4-methylpyrrolidin-1-yl)methyl)benzo[d]oxazol-2-yl)-2,2′-dimethyl-[1,1′-biphenyl]-3-yl)-6-(difluoromethoxy)benzo[d]oxazol-5-yl)methyl)-L-proline] showed an IC50 of 0.1 to 5 nM. `Cc1c(-c2nc3cc(CN4CC[C@@H](C(=O)O)C4)c(OC(F)F)cc3o2)cccc1-c1cccc(-c2nc3cc(CN4CCC(C)C4)cc(C(F)(F)F)c3o2)c1C` (stereo partly drawn) [Example 91, (3R)-1-((6-(difluoromethoxy)-2-(2,2′-dimethyl-3′-(5-((3-methylpyrrolidin-1-yl)methyl)-7-(trifluoromethyl)benzo [d]oxazol-2-yl)-[1,1′-biphenyl]-3-yl)benzo[d]oxazol-5-yl)methyl)pyrrolidine-3-carboxylic acid] gave an IC50 of 0.1 to 5 nM.

Reference: patent publication US12187713B2, “Immunomodulators, compositions and methods thereof” (Betta Pharmaceuticals Co., Ltd, priority 2019, dated 2025)
